Reference: patent publication US20230263798A1, “COMPOSITIONS AND METHODS FOR TREATING THERAPY RESISTANT CANCER” (The General Hospital Corporation, priority 2020, published 2023)
Entries after “also recorded” stand apart in the source; their conditions may differ.

What was measured:
Format in all cases: cell-based
[1] = tested on: CD14+ monocytes, CD8+ T cells, and NK (NK92) cells; experiment: Co-culture of treated cancer cells with immune cells; settings: untreated or doxorubicin or gemcitabine treated cells plus agent
Source text: APOBEC3B would lead to neoepitopes that could trigger the immune system. However, this is not readily seen as inhibitors of immune cells such as TGF-β that inhibits NK cells are increased in doxorubicin treated breast cancer cells. […] M6A also downregulates antiviral innate immune response while promoting ADAR1 that suppresses antiviral immunity. Therefore, inhibition of METTL3 would activate them.

MCF7 cells = experiment: Doxorubicin chemosurvival of MCF7 cells; settings: for doxorubicin chemosurvival with co-treatment: 500 nM Doxorubicin treated MCF7 cells co-treated with agent (5 uM Trazodone, 5 uM ISRIB, 6uM Enzastaurin) vs DMSO buffer
Procedure: This was tested in METTL3 overexpression cells compared to CD-M3 cells compared to control Actin mRNA by qPCR. […] 500 nM Doxorubicin treated MCF7 cells were co-treated with (i) 5 uM of Trazodone, (ii) 5 uM of ISRIB, or DMSO buffer. […] Data are average of 3 replicates +/-SEM. Actin and Tubulin are loading controls for Western blots. See also FIG. 8A-8l.
(§1) FIGS. 8C and 8D show Western blot analysis of PARP1, phospho-elF2α, METTL3 with doxorubicin or Sal003 treatment. […] 500 nM Doxorubicin treated MCF7 cells were co-treated with 6uM of Enzastaurin or DMSO buffer. […] Data are average of 3 replicates +/-SEM.

phospho-elF2α [2] = experiment: Western blot of elF2α phosphorylation in MCF7 cells; settings: for elF2α phosphorylation: MCF7 cells, agent alone, Western blot; for elF2α phosphorylation in doxorubicin treated cells with agent: addition to doxorubicin treated cells (FIG. 8F)
Procedure: as §1

METTL3 [3] = experiment: Western blot analysis of METTL3 in MCF7 cells; settings: for METTL3 level in doxorubicin treated cells co-treated with agent: doxorubicin treated cells plus agent vs buffer treated
Source text: The Western blot includes samples with control shRNA or shMETTL3. […] Tubulin and Histone serve as Western blot loading controls. Data are average of 3 replicates +/-SEM. See also FIGS. 2A-2G.
(§2) Data are average of 3 replicates +/-SEM. Tubulin serves as the loading control.
(§3) Tubulin and Histone serve as Western blot loading controls. Data are average of 3 replicates +/-SEM. See also FIGS. 4A-4H.
(§4) Actin and Tubulin are loading controls for Western blots. Data are average of 3 replicates +/-SEM.
as §1
(§5) To determine the mechanisms of specific mRNA expression in chemosurviving cancer cells, we examined RNA binding regulators in chemosurviving MCF7 breast cancer cells, isolated after doxorubicin chemotherapy treatment.

METTL3 [4] = experiment: Western blot of METTL3 in THP1 cells; settings: 1 µM Cytarabine over time
phospho-elF2α [5] = experiment: Western blot of elF2α phosphorylation in THP1 cells; settings: 1 µM Cytarabine over time
phospho-elF2α [6] = experiment: Western blot of elF2α phosphorylation in BT549 cells; settings: over time of treatment
Procedure: as §2
as §5, with “treatment. […] The increase observed is transient and is not observed at 48 h of treatment (FIG. 2A).” for “treatment.”

METTL3 [7] = experiment: Western blot of METTL3 in BT549 cells; settings: over time of treatment
METTL14 = experiment: Western blot analysis of METTL14 in MCF7 cells; settings: for METTL14 level in doxorubicin treated cells co-treated with agent: doxorubicin treated cells plus agent (FIGS. 3D and 3E)
Source text: as §3, §4
(§6) Western blot is shown of other RNA binding proteins that increase in mass spectrometry data. […] FIGS. 6J and 6K show Hexim, PPM1G and HuR increase in chemotreated patient samples and on doxorubicin treatment.
(§7) If METTL3 is increased by Sal003, then m6A on RNA should increase in such conditions.

Hexim1 = experiment: Western blot of Hexim1; settings: treated cells
Source text: as §6
Other RNA binding proteins such as HEXIM1 and PPM1G that increase in doxorubicin surviving cells also associate with METTL3 mRNA and with HuR. The indirect associated protein, Hexim1 is a transcription regulator but also associates with other complexes and RNAs and promotes mRNA stability under nucleotide stress. […] The phosphatase PPM1G is known to associate with Hexim1 and is activated by DNA damage/ATM signaling upon chemotherapy treatment, and upon PI3K/Akt inhibition, consistent with these conditions where METTL3 increases. On Akt inhibition, PPM1G dephosphorylates 4EBP; this inhibits canonical translation, consistent with specific mRNA translation elicited in these conditions.
Therefore, we tested whether Hexim1 was required for METTL3 levels.

ATF4 = experiment: Western analysis of ATF4 (ISR response gene); settings: for ATF4 level in doxorubicin treated cells co-treated with agent: doxorubicin treated cells plus agent vs buffer treated
Source text: as §7

METTL3 mRNA = METTL3 mRNA level and translation (qPCR, polysome fractionation, nascent amino acid labeling); settings: treated vs buffer treated cells, polysome fractionation and qPCR
Procedure: as §3, §4
To verify that the increase in METTL3 was at the translation level, polysome analysis was conducted first. […] We next verified increased polysome association of METTL3 mRNA with Y10B antibody immunoprecipitation in doxorubicin treated and in Sal003 cells compared to buffer treated cells (FIGS. 3I and 4F).

PARP1 = experiment: Western blot analysis of PARP1; settings: treated cells
Procedure: as §1
Consistently, doxorubicin treated cells are sensitive to PARP inhibitors, such as Talazoparib (BMN-673, FIG. 8B).

m6A on RNA = experiment: m6A on ribosomal RNA depleted RNA (dot blot, 2D-TLC)
Procedure: The Western blot includes samples with control shRNA or shMETTL3. […] Tubulin and Histone serve as Western blot loading controls. Data are average of 3 replicates +/-SEM. See also FIGS. 2A-2G. […]
To test whether the increased m6A modification enzymes lead to increased m6A modification on RNA, ribosomal RNA depleted RNA from doxorubicin treated cells compared to untreated cells by dot blot analyses was tested. […] Consistent with decreased METTL3 upon knockdown, the dot blot signal is depleted when METTL3 is knocked down (FIG. 1B). Second, RNA from doxorubicin treated cells for m6A by two-dimensional-thin layer chromatography separation (2D-TLC) was performed (H. Grosjean, G. Keith, L. Droogmans, Detection and quantification of modified nucleotides in RNA using thin-layer chromatography. Methods in molecular biology (Clifton, N.J.) 265, 357-391 (2004)).

[8] = MCF7 cells, agent alone vs untreated/buffer, Western blot
[9] = ribosomal RNA depleted RNA from treated vs untreated MCF7 cells, dot blot or 2D-TLC

## Nc1ncnc2c1nnn2[C@@H]1O[C@H](CO)[C@@H](O)[C@H]1O [8-azaadenosine]
[1]
  survival of treated cancer cells co-cultured with immune cells: sensitive to anti-tumor immunity
MCF7 cells
  doxorubicin chemosurvival with co-treatment: reduced doxorubicin survival

## Cn1c(=O)n(-c2ccc(C(C)(C)C#N)cc2)c2c3cc(-c4cnc5ccccc5c4)ccc3ncc21 [BEZ 235]
phospho-elF2α [2]
  elF2α phosphorylation: elF2α phosphorylation
METTL3 [3]; [8]
  METTL3 level: Increase

## Nc1ccn([C@@H]2O[C@H](CO)[C@@H](O)[C@@H]2O)c(=O)n1 [Cytarabine]
METTL3 [4]
  METTL3 level: transient increase
phospho-elF2α [5]
  elF2α phosphorylation: transient increase

## Cn1cc(C2=C(c3cn(C4CCN(Cc5ccccn5)CC4)c4ccccc34)C(=O)NC2=O)c2ccccc21 [Enzastaurin]
METTL3 [3]; Western blot
  METTL3 level in doxorubicin treated cells co-treated with agent: reduced
MCF7 cells
  doxorubicin chemosurvival with co-treatment: reduced

## Nc1ccn([C@@H]2O[C@H](CO)[C@@H](O)C2(F)F)c(=O)n1 [Gemcitabine]
phospho-elF2α [6]
  elF2α phosphorylation: increase over time
phospho-elF2α [2]
  elF2α phosphorylation: increase over time
METTL3 [3]; [8]
  METTL3 level: increase over time
METTL3 [7]
  METTL3 level: increase over time

## CC(=O)NCCCCCCNC(C)=O [HMBA]
phospho-elF2α [2]
  elF2α phosphorylation: elF2α phosphorylation
METTL3 [3]; [8]
  METTL3 level: increased
METTL14; [8]
  METTL14 level: increases
Hexim1
  Hexim1 level: increased

## O=C(COc1ccc(Cl)cc1)NC1CCC(NC(=O)COc2ccc(Cl)cc2)CC1 (centres unmarked) [ISRIB]
[1]
  survival of treated cancer cells co-cultured with immune cells: loss of survival
METTL3 [3]; Western blot
  METTL3 level in doxorubicin treated cells co-treated with agent: do not show increase
ATF4
  ATF4 level in doxorubicin treated cells co-treated with agent: do not show increase
METTL14
  METTL14 level in doxorubicin treated cells co-treated with agent: prevent
MCF7 cells
  doxorubicin chemosurvival with co-treatment: significant decrease

## CC(C)(C)Cn1c(N)nc2ccc(-c3[nH]c(C(C)(C)C)nc3-c3ccc(F)cc3)nc21 [LY2228820]
METTL3 [3]; Western blot
  METTL3 level in doxorubicin treated cells co-treated with agent: reduces METTL3 increase

## O=[N+]([O-])c1ccc(Nc2nc(N3CCOCC3)nc(N3CCOCC3)n2)cc1 [MHY1485]
METTL3 [3]; [8]
  METTL3 level: decreased

## COc1ccc(COc2cc3oc(=O)c4cc(C(C)O)ccc4c3cc2OC)cc1 (centres unmarked) [Palomid 529]
METTL3 [3]; [8]
  METTL3 level: Increase

## C[S+]([O-])c1ccc(-c2nc(-c3ccncc3)c(-c3ccc(F)cc3)[nH]2)cc1 (centres unmarked) [SB203580]
METTL3 [3]; Western blot
  METTL3 level in doxorubicin treated cells co-treated with agent: reduces METTL3 increase

## O=C(/C=C/c1ccccc1)NC(NC(=S)Nc1ccc(Cl)cc1)C(Cl)(Cl)Cl (centres unmarked) [Sal003]
phospho-elF2α [2]
  elF2α phosphorylation: prevented dephosphorylation
METTL3 [3]; [8]
  METTL3 level: increased
ATF4; MCF7 cells, agent alone
  non-canonical translation of ATF4: induced
METTL14; [8]
  METTL14 level: increased
METTL3 mRNA
  METTL3 mRNA on polysomes compared to monosomes: increased
PARP1
  PARP1 level: increases
m6A on RNA; [9]
  m6A on RNA: increased

## Cn1ncnc1[C@H]1c2n[nH]c(=O)c3cc(F)cc(c23)N[C@@H]1c1ccc(F)cc1 [Talazoparib]
MCF7 cells
  doxorubicin chemosurvival with co-treatment: sensitive

## CC(=O)O[C@H]1C(=O)[C@@]2(C)[C@H]([C@H](OC(=O)c3ccccc3)[C@]3(O)C[C@H](OC(=O)[C@H](O)[C@@H](NC(=O)c4ccccc4)c4ccccc4)C(C)=C1C3(C)C)[C@]1(OC(C)=O)CO[C@@H]1C[C@@H]2O [Taxol]
phospho-elF2α [6]
  elF2α phosphorylation: increase over time
METTL3 [7]
  METTL3 level: increase over time

## CCC(=O)N1CCN(c2ccc(-n3c(=O)ccc4cnc5ccc(-c6cnc7ccccc7c6)cc5c43)cc2C(F)(F)F)CC1 [Torin1]
phospho-elF2α [2]
  elF2α phosphorylation: elF2α phosphorylation
METTL3 [3]; MCF7 3D tumor spheres
  METTL3 level: increase
METTL3 [3]; [8]
  METTL3 level: increased
METTL14; MCF7 3D tumor spheres
  METTL14 level: increase
m6A on RNA; MCF7 3D tumor spheres, dot blot
  m6A on RNA: increased

## CN(C)C(=N)N=C(N)N [metformin]
phospho-elF2α [2]
  elF2α phosphorylation in doxorubicin treated cells with agent: reduction
[1]
  survival of treated cancer cells co-cultured with immune cells: loss of survival
METTL3 [3]; Western blot
  METTL3 level in doxorubicin treated cells co-treated with agent: decreased induction
MCF7 cells
  doxorubicin chemosurvival with co-treatment: decreased chemosurvival

## [H]/N=C(/N)N/C(=N/[H])NCCc1ccccc1 [phenformin]
phospho-elF2α [2]
  elF2α phosphorylation in doxorubicin treated cells with agent: reduction
[1]
  survival of treated cancer cells co-cultured with immune cells: loss of survival
METTL3 [3]; Western blot
  METTL3 level in doxorubicin treated cells co-treated with agent: decreased induction
MCF7 cells
  doxorubicin chemosurvival with co-treatment: decreased chemosurvival; also recorded: reduced doxorubicin survival

## C/C=C(/C)C(=O)O[C@H]1C(C)=C2[C@H]([C@@H]1OC(=O)CCCCCCC)[C@@](C)(OC(C)=O)C[C@H](OC(=O)CCC)[C@@]1(O)[C@H]2OC(=O)[C@@]1(C)O [thapsigargin]
phospho-elF2α [2]
  elF2α phosphorylation: induces
METTL3 [3]; [8]
  METTL3 level: increase
METTL14; [8]
  METTL14 level: increase

## O=c1n(CCCN2CCN(c3cccc(Cl)c3)CC2)nc2ccccn12 [trazodone]
[1]
  survival of treated cancer cells co-cultured with immune cells: loss of survival
METTL3 [3]; Western blot
  METTL3 level in doxorubicin treated cells co-treated with agent: do not show increase
ATF4
  ATF4 level in doxorubicin treated cells co-treated with agent: do not show increase
METTL14
  METTL14 level in doxorubicin treated cells co-treated with agent: prevent
MCF7 cells
  doxorubicin chemosurvival with co-treatment: significant decrease
MCF7 cells; METTL3 depleted (shMETTL3) cells, doxorubicin plus Trazodone vs buffer (FIG. 8A)
  doxorubicin chemosurvival of shMETTL3 cells with agent: Synergistic decrease in chemosurvival was not observed

## poly I:C
phospho-elF2α [2]
  elF2α phosphorylation: induces
METTL3 [3]; [8]
  METTL3 level: increase
METTL14; [8]
  METTL14 level: increase
m6A on RNA; [9]
  m6A on RNA: increased
Hexim1
  Hexim1 level: increases
